The values below come from patent US20050043178A1, “Herbicidal and bacteriostatic compounds from centaurea maculosa” (Colorado State University Research Foundation, priority 2001, published 2005).

Entries after “also recorded” stand apart in the source; their conditions may differ.

The test system of experiment [1] is Arabidopsis thaliana shoot cultures. Briefly: Phytotoxicity (MIC, shoot and root differentiation) on Arabidopsis thaliana in MS basal medium. In kind it is in vivo. Conditions: for minimum inhibitory concentration (MIC): Arabidopsis thaliana shoot cultures in vitro. How it is done: (§1) Catechin and 2, 4-D were administered in MS basal medium at different concentration range (1-200 μg ml^−1) to check for the minimum inhibitory concentration (MIC). i) 10 μg ml^−1; ii) 60 μg ml^−1; iii) 100 μg ml^−1. • B) Effect of catechin on shoot and root differentiation in A. thaliana plants on the 14th day. Catechin was compared for phytoxicity against 2, 4-D and was administered at 100 μg ml^−1 concentration in MS basal medium (5 ml). Treatments were as follows: 1) Untreated control; 2) (+)-catechin; 3) (−)-catechin; 4) (±)-catechin; 5) (+/−) co-administered catechin; 6) (±) catechin isolated from root exudates of C. maculosa; 7) 2, 4-D. [Means of different letters at the top of each bar indicate significant difference (p<0.05) (SEM±52df)]. • C) Antibacterial activity of (+)-catechin on different bacterial strains. i) Tube antibacterial assay. 1) Control (without (+)-catechin); 2) (+)-catechin 100 μg ml^−1; 3) (+)-catechin 150 μg ml^−1; 4) (+)-catechin 200 μg ml^−1. Bacterial cultures were grown overnight at 24° C. in liquid LB media to an optical density of 0.2 at 600 nm. Different concentrations (100-200 μg ml^−1) of (+)-catechin were administered to the bacteria-containing LB media. Optical density at 600 nm was checked after 24 hrs of incubation to measure bacterial inhibition in tubes. Antibacterial activity was assayed on both tubes and 35 mm plates. ii) Antibacterial activity of (+)-catechin on Pseudomonas fluorescens analyzed in a petri dish assay. Treatments on petri dish refers to the following concentrations: 1) Methanol ((+)-catechin solvent) was used as a control; II) (−)-catechin (100 μg ml^−1); III) (+)-catechin (100 μg/ml); IV) (±)-catechin (200 μg ml^−1); V) (±)-catechin (200 μg ml^−1) isolated from root exudates of C. maculosa.
Root exudates of in vitro-grown C. maculosa plants were assayed for their effects on the phenotypic response and germnination efficiency of various weeds, including Linaria dalmatica (Dalmatian toadflax), Verbascum thapsus (common mullein), Bromos tectorum (downy brome), Kochia scoparia (kochia), Centaurea diffusa (diffuse knapweed), the model plant Arabidopsis thaliana and crops such as wheat (Triticum aestivum) and tomato (Lycopersicon esculentum). Ten day old seedlings and seeds of C. maculosa, L. dalmatica, V. thapsus, B. tectorum, K. scoparia, C. diffusa, A. thaliana, T. aestivum and L. esculetum were placed on MS basal medium in petri dishes after initial surface sterilization. Petri dishes were kept under a 16 hour light and 8 hour dark photoperiod in an incubator (Lab-Line). An additional objective was to check the effect of allelochemicals from C. maculosa on growth and differentiation of food crops such as Triticum aestivum (Wheat) and Lycopersicon esculetum (Tomato). This was of interest as wheat is known to produce an allelopathic effect in its root exudates (H. Wu, T. Haig, J. Prateley, D. Lemerle, M. An, J. Food Agric Chem. 48, 5321 (2000)). Root exudates collected from non-elicited and elicited cultures of C. maculosa were administered in different concentrations (1-3 ml v/v) over the surface sterilized seeds and seedlings to analyze their phytotoxic effects. […] After incubation, growth parameters such as length of shoots, number of shoots and length of primary root of the treated and untreated plants were measured. […]

For experiment [2], the system named is Agrobacterium rhizogenes (15834). The experiment in a line: Tube antibacterial assay (OD 600 nm after 24 hrs). In kind it is cell-based. Conditions: even at higher concentrations. How it is done:
as §1
(§2) Antibacterial plate assay was performed on a bacterial culture grown overnight; both the enantiomers and the racemic catechin were added to the paper discs and allowed to dry under laminar hood conditions. […] Visual observations for inhibition zone were recorded after 24 hrs. […]

The test system of experiment [3] is Erwinia carotovora. The experiment in a line: Tube antibacterial assay (OD 600 nm after 24 hrs). The experiment is classed as cell-based. Conditions: 100-200 μg/ml. On the procedure:
as §1, §2

The test system of experiment [4] is Xanthomonas campestris. The experiment in a line: Tube antibacterial assay (OD 600 nm after 24 hrs). Particulars: 100-200 μg/ml. In kind it is cell-based. On the procedure: as §1, §2
Experiment [5] deals with Pseudomonas fluorescens. The experiment in a line: Tube and plate antibacterial assay. Conditions: 100-200 μg/ml, 24 hrs. The experiment is classed as cell-based. How it is done: Catechin and 2, 4-D were administered in MS basal medium at different concentration range (1-200 μg ml^−1) to check for the minimum inhibitory concentration (MIC). i) 10 μg ml^−1; ii) 60 μg ml^−1; iii) 100 μg ml^−1. • B) Effect of catechin on shoot and root differentiation in A. thaliana plants on the 14th day. Catechin was compared for phytoxicity against 2, 4-D and was administered at 100 μg ml^−1 concentration in MS basal medium (5 ml). Treatments were as follows: 1) Untreated control; 2) (+)-catechin; 3) (−)-catechin; 4) (±)-catechin; 5) (+/−) co-administered catechin; 6) (±) catechin isolated from root exudates of C. maculosa; 7) 2, 4-D. [Means of different letters at the top of each bar indicate significant difference (p<0.05) (SEM±52df)]. • C) Antibacterial activity of (+)-catechin on different bacterial strains. i) Tube antibacterial assay. […] Antibacterial activity was assayed on both tubes and 35 mm plates. ii) Antibacterial activity of (+)-catechin on Pseudomonas fluorescens analyzed in a petri dish assay. […]
as §2

For experiment [6], the system named is soil borne bacteria. Briefly: Antibacterial assay on soil borne bacteria (six strains). The experiment is classed as cell-based. Conditions: six bacterial strains / soil-borne pathogens tested. On the procedure: as §1, §2
The subject of experiment [7] is various weeds and crop plants. Briefly: Phytotoxic effect on seedlings of weeds and crop plants. In kind it is in vivo. Particulars: incl. C. diffusa. On the procedure: (§3) Root exudates collected from non-elicited cultures of C. maculosa were administered in different concentrations (1-3 ml v/v) in the MS basal liquid media containing different seedlings to analyze phenotypic explant response. ii) Effect of fungal cell wall (CWE) elicited root exudates of C. maculosa on shoots and root differentiation of different weeds and crop plants on 14th day. Fungal cell wall extracts (CWE) from Phytophthora cinnamoni and Rhizoctonia solani were used. Data represents the percent inhibition as compared to the untreated control in shooting and rooting response in various tested seedlings against non-elicited and elicited root exudates of C. maculosa. The seedlings tested against C. maculosa exudates were as follows:1: C. maculosa; 2: L. dalmatica; 3: V. thapsus; 4: B. tectorum, 5: K. scoparia; 6: C. diffusa; 7: A. thaliana 8: T. aestivum; 9: L. esculentum. [Means of different letters at the top of each bar indicate significant difference (p<0.05) (SEM±52df)]. • B) Effect of purified HPLC-fraction from C. maculosa root exudates on morphological differentiation of various weeds and food crops. HPLC peaks were collected and administered into 5 ml MS basal medium at 100 μg ml^−1 concentration; fractions were added in different permutations. i) C. maculosa; ii) C. diffusa; iii) K scoparia; iv) L. dalmatica; v) A.thaliana; vi) T. aestivum. […]

Experiment [8] relates to C. maculosa. The experiment in a line: Effect on C. maculosa itself (autotoxicity). In kind it is in vivo, Centaurea maculosa. Conditions: FIG. 1(b and c). How it is done: as §3

As to `Oc1cc(O)c2c(c1)O[C@H](c1ccc(O)c(O)c1)[C@@H](O)C2` [(+)-catechin], the “allelochemical activity / phytotoxicity” value in experiment [1] (A. thaliana, FIGS. 2 a, b) was “not phytotoxic; also recorded: did not show allelochemical activity”. The inhibition of growth result in experiment [2] is “not affected”. The “inhibition of growth (decrease in optical density)” value in experiment [3], in experiment [4] and in experiment [5] was “distinct inhibition of growth” each time. Further, the antibacterial activity entry in experiment [6] is “antibacterial activity against root infesting pathogens; also recorded: most showed a degree of inhibition”.

`O=C(O)COc1ccc(Cl)cc1Cl` [2,4-D, 2,4-dichlorophenoxyacetic acid, reference compound]: the “minimum inhibitory concentration (MIC)” value in experiment [1] stood at 10 µg/mL.

Turning to (−)-catechin [(−)catechin], the “doses accounting for the allelochemical activity (as low as)” value in experiment [1] (A. thaliana, FIGS. 2 a, b) is 50 to 60 µg/mL. Besides, in experiment [7], the “spectrum of phytotoxicity / allelochemical activity” value is on record as “broad-spectrum phytotoxicity”. Further, the antibacterial activity result was “failed to show any antibacterial activity” in experiment [6] and “does not show” in experiment [6] (listed as (−)-catechin).

Take `Oc1cc(O)c2c(c1)OC(c1ccc(O)c(O)c1)C(O)C2` (racemic) [(±)-catechin]: the “minimum inhibitory concentration (MIC)” value in experiment [1] was “about 100 μg/ml”. In addition, the “effect compared with root exudated (±)-catechin” value in experiment [1] (commercially available racemate, FIG. 2(a and b)) is recorded as “same effect as root exudated (±)-catechin”. Moreover, the “resistance of C. maculosa” value in experiment [8] is “strongly resistant”.
